Data: patent publication US4697012A, “Morpholino pyridyl thiazole compound” (Merck & Co., Inc., priority 1984, dated 1987)
Structures can show the parent of a compound that is named as a salt.

Test system: footpad swelling (SRBC challenge)
Assay: Delayed Hypersensitivity Assay (SRBC-sensitized mice, footpad swelling)
Type: in vivo, female BALB/C mice
Conditions: Mus musculus, one hour prior to challenge, 24 hrs post challenge, read-out: Inhibition % (percent inhibition of footpad swelling); for inhibition in vivo at 10 mg/kg: dosage 10.0 mg/kg p.o.; for inhibition in vivo at 1 mg/kg: dosage 1.0 mg/kg p.o.; for inhibition in vivo at 0.1 mg/kg: dosage 0.1 mg/kg p.o.; for inhibition in vivo at 100 mg/kg: dosage 100.0 mg/kg p.o.; for inhibition in vivo at 0.01 mg/kg: dosage 0.01 mg/kg p.o.; for inhibition in vivo at 10000 µg/mL / inhibition in vivo at 10 µg/mL / inhibition in vivo at 100 µg/mL / inhibition in vivo at 100000 µg/mL: Table II; for inhibition in vivo at 10000 µg/mL: dosage 10.0 (mg/ml as printed) p.o.; for inhibition in vivo at 10 µg/mL: dosage 0.01 (mg/ml as printed) p.o.; for inhibition in vivo at 100 µg/mL: dosage 0.1 (mg/ml as printed) p.o.; for inhibition in vivo at 100000 µg/mL: dosage 100.0 (mg/ml as printed) p.o.
Description: Animals (female BALB/C mice) are sensitized with 5×10^5 SRBC(sheep red blood cells)/0.5 ml by intravenous (tail vein) injection. One hour prior to challenge, animals are dosed with the drugs in question, p.o. On day four the animals are challenged with 5×10^8 SRBC/0.05 ml in the hind foot pad. Footpad volume is measured by a mercury displacement apparatus before challenge and 24 hrs post challenge. Percent inhibition of footpad swelling is calculated by comparing the increase in footpad volume of test group to the control group.

c1ccc(-c2ccc(Cc3nc(-c4ccncc4)cs3)cc2)cc1 [p-C6 H5]
inhibition in vivo at 10 mg/kg (po, Table I): 36.4%

FC(F)(c1ccccc1)c1nc(-c2ccncc2)cs1 [F,F, 1,1-Difluoro-1-phenyl-1-[4-(4-pyridyl)-2-thiazolyl]-methane]
inhibition in vivo at 1 mg/kg (po, Table I): 49%
inhibition in vivo at 10 mg/kg (po, Table I): 63%

Cc1cccc(Cc2nc(-c3ccncc3)cs2)c1 [m-CH3, 2-(m-methyl-benzyl)-4-(4-pyridyl)thiazole dihydrochloride]
inhibition in vivo at 0.1 mg/kg (po, Table I): 49.1%
inhibition in vivo at 10 mg/kg (po, Table I): 64.8%
inhibition in vivo at 100 mg/kg (po, Table I): 71.2%

c1ccc(Cc2nc(-c3ccncc3)cs2)cc1 [H, 2-Benzyl-4-(4-pyridyl)thiazole]
inhibition in vivo at 0.01 mg/kg (po, Table I): 21.8%
inhibition in vivo at 0.1 mg/kg (po, Table I): 70.2%
inhibition in vivo at 30 mg/kg (po, Table I, dosage 30 mg/kg p.o.): 75.2%

Fc1ccc(Cc2nc(-c3ccncc3)cs2)cc1 [PF, 2-(p-fluoro-benzyl)-4-(4-pyridyl)thiazole]
inhibition in vivo at 0.1 mg/kg (po, Table I): 11.7%
inhibition in vivo at 1 mg/kg (po, Table I): 60.8%
inhibition in vivo at 10 mg/kg (po, Table I): 40.9%

OCC(c1ccccc1)c1nc(-c2ccncc2)cs1 (stereo not drawn) [CH2 OH, 2-Phenyl-2-[4-(4-pyridyl)-2-thiazolyl] ethanol]
inhibition in vivo at 0.1 mg/kg (po, Table I): 51%
inhibition in vivo at 1 mg/kg (po, Table I): 65%
inhibition in vivo at 10 mg/kg (po, Table I): 27%

N#Cc1cc(-c2csc(Cc3ccccc3)n2)ccn1 [Example 2-CN]
inhibition in vivo at 10000 µg/mL: 36.6%

O=[N+]([O-])c1ccc(Cc2nc(-c3ccncc3)cs2)cc1 [p-NO2, 2-(p-Nitrobenzyl)-4-(4-pyridyl)thiazole]
inhibition in vivo at 0.01 mg/kg (po, Table I): 32.4%
inhibition in vivo at 0.1 mg/kg (po, Table I): 40.6%
inhibition in vivo at 10 mg/kg (po, Table I): 65.2%
inhibition in vivo at 100 mg/kg (po, Table I): 82.2%

Oc1ccccc1Cc1nc(-c2ccncc2)cs1 [o-OH]
inhibition in vivo at 0.01 mg/kg (po, Table I): 15.1%
inhibition in vivo at 0.1 mg/kg (po, Table I): 16.4%

O=CC(c1ccccc1)c1nc(-c2ccncc2)cs1 (stereo not drawn) [CHO]
inhibition in vivo at 10 mg/kg (po, Table I): 63%

NC(=O)Nc1ccccc1Cc1nc(-c2ccncc2)cs1 [o-NHCONH2]
inhibition in vivo at 0.01 mg/kg (po, Table I): 40.4%
inhibition in vivo at 10 mg/kg (po, Table I): 31.4%

Nc1ccccc1Cc1nc(-c2ccncc2)cs1 [o-NH2, 2-(o-Aminobenzyl)-4-(4-pyridyl)thiazole]
inhibition in vivo at 0.01 mg/kg (po, Table I): 82.2%
inhibition in vivo at 0.1 mg/kg (po, Table I): 93.6%
inhibition in vivo at 10 mg/kg (po, Table I): 52.8%

Clc1cc(-c2csc(Cc3ccccc3)n2)ccn1 [Example 2-Cl, 2-Benzyl-4-(2-chloro-4-pyridyl)thiazole]
inhibition in vivo at 10 µg/mL: 52.6%
inhibition in vivo at 100 µg/mL: 64.7%
inhibition in vivo at 10000 µg/mL: 77.6%
inhibition in vivo at 100000 µg/mL: 80.1%

[O-][n+]1ccc(-c2csc(Cc3ccccc3)n2)cc1 [Noxide, 4-[2-(Phenylmethyl)-4-thiazolyl]pyridine-1-oxide]
inhibition in vivo at 10 µg/mL: 46%
inhibition in vivo at 100 µg/mL: 55.6%
inhibition in vivo at 10000 µg/mL: 71.8%
inhibition in vivo at 100000 µg/mL: 93.4%

c1ccc(Cc2nc(-c3ccnc(N4CCOCC4)c3)cs2)cc1 [Example 2-morpholino]
inhibition in vivo at 10 µg/mL: 26.1%
inhibition in vivo at 100 µg/mL: 33.8%
inhibition in vivo at 10000 µg/mL: 44.3%
inhibition in vivo at 100000 µg/mL: 45.1%

CC(=O)Nc1ccccc1Cc1nc(-c2ccncc2)cs1 [o-NHCOCH3, 2-(o-acetamidobenzyl)-4-(4-pyridyl)thiazole]
inhibition in vivo at 0.1 mg/kg (po, Table I): 32.6%
inhibition in vivo at 10 mg/kg (po, Table I): 52.8%
inhibition in vivo at 100 mg/kg (po, Table I): 75.5%

N#CC(c1ccccc1)c1nc(-c2ccncc2)cs1 (stereo not drawn) [CN, 2-Phenyl-2-[4-(4-pyridyl)-2-thiazolyl]acetonitrile]
inhibition in vivo at 0.1 mg/kg (po, Table I): 58%
inhibition in vivo at 1 mg/kg (po, Table I): 46%

OC(c1ccccc1)c1nc(-c2ccncc2)cs1 (stereo not drawn) [OH, 1-Phenyl-1-[4-(4-pyridyl)-2-thiazolyl]methanol]
inhibition in vivo at 0.1 mg/kg (po, Table I): 32%
inhibition in vivo at 1 mg/kg (po, Table I): 31%
inhibition in vivo at 10 mg/kg (po, Table I): 55%
